Like-named read-outs stand apart in the source and are kept apart here.
What was measured:
Full length Human HDAC8 = target: T1, Full length Human HDAC8 (Homo sapiens, UniProt Q9BY41)
T1 sequence (Q9BY41 1-377): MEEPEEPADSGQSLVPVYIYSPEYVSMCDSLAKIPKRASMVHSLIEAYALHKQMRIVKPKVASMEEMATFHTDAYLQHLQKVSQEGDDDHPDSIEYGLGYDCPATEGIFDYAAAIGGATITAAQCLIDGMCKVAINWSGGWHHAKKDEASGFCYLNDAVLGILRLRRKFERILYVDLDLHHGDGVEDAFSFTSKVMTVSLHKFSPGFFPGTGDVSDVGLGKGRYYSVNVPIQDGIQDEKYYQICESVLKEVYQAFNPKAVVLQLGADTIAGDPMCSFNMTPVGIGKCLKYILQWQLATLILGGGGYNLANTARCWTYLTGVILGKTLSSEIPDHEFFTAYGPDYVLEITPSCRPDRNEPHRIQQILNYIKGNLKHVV

Full length Human HDAC6 = target: T2, Full length Human HDAC6 (Homo sapiens, UniProt Q9UBN7); details: for Selectivity (6 v 8) (fold): ratio of HDAC8 IC50/HDAC6 IC50
T2 sequence (Q9UBN7 1-1215): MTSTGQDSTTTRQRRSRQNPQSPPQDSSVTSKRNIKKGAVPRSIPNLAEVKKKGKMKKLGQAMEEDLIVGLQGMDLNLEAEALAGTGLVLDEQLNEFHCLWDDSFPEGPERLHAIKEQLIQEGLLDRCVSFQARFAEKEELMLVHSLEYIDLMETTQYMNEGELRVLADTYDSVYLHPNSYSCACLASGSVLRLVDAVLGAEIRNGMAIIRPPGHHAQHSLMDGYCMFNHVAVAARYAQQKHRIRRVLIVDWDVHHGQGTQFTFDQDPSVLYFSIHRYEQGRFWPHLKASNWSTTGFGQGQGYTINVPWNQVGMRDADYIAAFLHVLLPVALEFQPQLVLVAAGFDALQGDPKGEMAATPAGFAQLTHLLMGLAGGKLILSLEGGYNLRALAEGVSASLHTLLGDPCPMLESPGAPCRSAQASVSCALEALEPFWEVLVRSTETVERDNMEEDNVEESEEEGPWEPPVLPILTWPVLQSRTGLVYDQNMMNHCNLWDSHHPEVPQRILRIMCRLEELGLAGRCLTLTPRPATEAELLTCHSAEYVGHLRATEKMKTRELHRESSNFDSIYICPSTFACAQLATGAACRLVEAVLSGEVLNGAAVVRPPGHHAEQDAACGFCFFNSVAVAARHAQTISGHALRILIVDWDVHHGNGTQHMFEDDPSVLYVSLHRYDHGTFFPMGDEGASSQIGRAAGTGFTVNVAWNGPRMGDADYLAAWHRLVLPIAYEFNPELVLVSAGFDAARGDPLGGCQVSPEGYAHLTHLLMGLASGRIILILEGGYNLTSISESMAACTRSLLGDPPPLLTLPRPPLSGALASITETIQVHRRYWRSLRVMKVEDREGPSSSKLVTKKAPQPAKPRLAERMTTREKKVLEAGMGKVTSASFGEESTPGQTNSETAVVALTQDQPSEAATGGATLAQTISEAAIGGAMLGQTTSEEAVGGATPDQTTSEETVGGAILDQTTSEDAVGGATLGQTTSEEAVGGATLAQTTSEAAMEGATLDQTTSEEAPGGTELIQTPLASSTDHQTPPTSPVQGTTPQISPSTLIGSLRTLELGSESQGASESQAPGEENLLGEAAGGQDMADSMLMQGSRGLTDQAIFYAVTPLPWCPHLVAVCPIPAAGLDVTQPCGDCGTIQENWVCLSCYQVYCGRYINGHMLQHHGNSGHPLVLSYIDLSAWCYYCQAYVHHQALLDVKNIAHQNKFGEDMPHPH

Compound | IC50 (Full length Human HDAC8) [nM] | IC50 (Full length Human HDAC6) [nM] | Selectivity (6 v 8) (fold) (Full length Human HDAC6; Table 1, number) | Selectivity (6 v 8) (fold) (Full length Human HDAC6; Table 1, range class)
CN1CC2CCC(C1)N2Cc1ccc(C(=O)NO)cc1F [compound 56] | 100 to 1000 | 1 to 100 | 19 | III (III: >10-100)
O=C(NO)c1cc(F)c2c(c1)CCN(CC13C4C5C6C4C1C6C53)C2 (stereo not drawn) [compound 25] | 10000 to 100000 | 1 to 100 | – | –
CN1Cc2ccc(C(=O)NO)cc2CN1Cc1ccccc1 [compound 117, 3-benzyl-N-hydroxy-2-methyl-1,2,3,4-tetrahydrophthalazine-6-carboxamide] | 100 to 1000 | 1 to 100 | 7.9 | II (II: >1-10)
CN1Cc2cc(C(=O)NO)ccc2CN1Cc1ccccc1 [compound 118, 2-benzyl-N-hydroxy-3-methyl-1,2,3,4-tetrahydrophthalazine-6-carboxamide] | 1000 to 10000 | 1 to 100 | – | –
O=C(NO)c1ccc2c(c1F)CCN(CC13CC4CC(CC(C4)C1)C3)C2 [compound 21] | 1000 to 10000 | 100 to 1000 | 50.2 | III (III: >10-100)
CC[C@@H](c1ccccc1)N1CCc2cc(C(=O)NO)cc(F)c2C1 (single isomer, unassigned) [compound 31] | – | – | 468.8 | IV (IV: >100-1000)
CN1CC2CCC1CN2Cc1ccc(C(=O)NO)cc1F (stereo not drawn) [compound 57] | 100 to 1000 | 1 to 100 | 10.7 | III (III: >10-100)
O=C(NO)c1ccc2c(c1)CN1CCCC[C@@H]1C2 (single isomer, unassigned) [compound 143] | – | – | 88.8 | III (III: >10-100)
O=C(NO)c1cc(F)c2c(c1)C[C@H]1CCC3(CCCCC3)CN1C2 (single isomer, unassigned) [compound 138] | 10000 to 100000 | 100 to 1000 | 45 | III (III: >10-100)
O=C(NO)c1ccc(CN2CCC3(CCCC3)C2)c(F)c1 [compound 73] | 1000 to 10000 | 1 to 100 | 35.8 | III (III: >10-100)
O=C(NO)c1ccc2c(c1)CCN1CCC[C@@H]21 (single isomer, unassigned) [compound 149] | – | – | 6.5 | II (II: >1-10)
O=C(NO)c1ccc(CN2CCCOCC2)c(F)c1 [compound 47] | 100 to 1000 | 1 to 100 | 22.3 | III (III: >10-100)
O=C(NO)c1cc(F)c2c(c1)CN(CC1COC1)CC2 [compound 115, 5-fluoro-N-hydroxy-2-(oxetan-3-ylmethyl)-1,2,3,4-tetrahydroisoquinoline-7-carboxamide] | 1000 to 10000 | 100 to 1000 | – | –
O=C(NO)c1cc(F)c2c(c1)CCN(CC1CCC1)C2 [compound 3] | 1000 to 10000 | 1 to 100 | – | –
O=C(NO)c1ccc(CN2CC3(CCOCC3)C2)c(F)c1 [compound 71] | 1000 to 10000 | 1 to 100 | 33.4 | III (III: >10-100)
O=C(NO)c1ccc2c(c1)C[C@@H]1COCC(=O)N1C2 (single isomer, unassigned) [compound 133] | 1000 to 10000 | 100 to 1000 | – | –
O=C(NO)c1cc(F)c2c(c1)CCN(CC(F)(F)F)C2 [compound 7] | 1000 to 10000 | 1 to 100 | – | –
O=C(NO)c1ccc2c(c1)CN1CCC[C@@H]21 (single isomer, unassigned) [compound 165] | 1000 to 10000 | 100 to 1000 | 15 | III (III: >10-100)
